# In US20090306219A1, “TOPICAL USE OF PLANT EXTRACT FOR SKIN DETOXIFICATION” (priority 2008, published 2009):
# Key:
# [1] = test system: glyoxalase I; experiment: Quantification of Glyoxalase I via immunoassay (western blot) in keratinocyte culture; type: cell-based; conditions: 0.0005%, keratinocyte culture treated 24 hrs
# Experimental: The blots were then transferred and probed with a fluorescent anti-body to glyoxalse I, purchased from Santa Cruz Biotechnology. Absorbance was measured and graphed.
# [2] = test system: glutathione; experiment: ELISA quantification of glutathione in keratinocyte culture; type: cell-based; conditions: 0.0005%, Treatment
# Experimental: In simple terms, in ELISA an unknown amount of antigen is affixed to a surface, and then a specific antibody is washed over the surface so that it can bind to the antigen. […] This antibody is linked to an enzyme, and in the final step a substance is added that the enzyme can convert to some detectable signal. Thus in the case of fluorescence ELISA, when light is shone upon the sample, any antigen/antibody complexes will fluoresce so that the amount of antigen in the sample can be measured.
# The ELISA kit used in this experiment was purchased from Cayman Chemicals. The experiment was performed as per the manufacturer's directions.
structure (smiles),measurement,setting,value
C=CCSSSCC=C [Diallyl Trisulfide],Inv OD 1,[1]; replicate 1,91.6
same,OD1,[1]; replicate 1,125.205
same,Inv OD 2,[1]; replicate 2,90.7
same,OD 2,[1]; replicate 2,126.011
same,Inv OD 3,[1]; replicate 3,71.1
same,OD 3,[1]; replicate 3,145.641
same,Inv OD 4,[1]; replicate 4,129.4
same,OD4,[1]; replicate 4,87.372
same,Inv OD 5,[1]; replicate 5,93.0
same,OD 5,[1]; replicate 5,123.78
same,Inv OD 6,[1]; replicate 6,86.2
same,OD 6,[1]; replicate 6,130.525
same,Inv OD Mean,[1]; significantly different from Untreated (mean 66.5),93.7
same,Glut Mean,[2]; Untreated mean 19,21
same,Glut 1,"[2]; replicate 1, Untreated 18",20
same,abs 1,[2]; replicate 1 absorbance,0.033
same,Glut 2,"[2]; replicate 2, Untreated 20",22
same,abs 2,[2]; replicate 2 absorbance,0.036
same,Glut 3,"[2]; replicate 3, Untreated 20",20
same,abs 3,[2]; replicate 3 absorbance,0.034
